Patent US9341616B2, “Sweet taste receptor chimeric proteins and use thereof” (AJINOMOTO CO., INC., priority 2014, dated 2016)
Residues, ends and D or L forms follow the SMILES beside them.

Each molecule was assayed against hT1R2/T1R3mosaicC (UniProt Q8TE23+Q925D8, A558R/A588V/A645S/A698V/A702T/A793V/A807V/C582S/C678S/D172E/D176A/D217E/E221Q/E725V/F541I/F612A/F622V/F695L/H728R/I617V/I706V/I740A/I803L/K555R/K565R/K818R/K827G/L560F/L684P/L735F/L823M/L825Q/M644L/M744T/N203E/N231A/N547G/N675D/P545F/P561R/P564S/Q195T/Q550E/Q611L/Q757R/Q795R/Q831P/R173L/R632Q/S168G/S205G/S228A/S576L/S595F/S610P/S635P/S637R/S679G/S717H/T199E/T542A/T663I/T694M/T813A/V197A/V198A/V573A/V584A/V718M/V723A/V729T/V738A/V805L/V812A/V821L/W599R/W676R/W824R/Y680C/Y794L). Settings: Table 6; genes hT2/T1R3mC (hT1R2, T1R3mC); HEK293E cells.
hT1R2/T1R3mosaicC, sequence (Q8TE23 20-839, stated change not applied): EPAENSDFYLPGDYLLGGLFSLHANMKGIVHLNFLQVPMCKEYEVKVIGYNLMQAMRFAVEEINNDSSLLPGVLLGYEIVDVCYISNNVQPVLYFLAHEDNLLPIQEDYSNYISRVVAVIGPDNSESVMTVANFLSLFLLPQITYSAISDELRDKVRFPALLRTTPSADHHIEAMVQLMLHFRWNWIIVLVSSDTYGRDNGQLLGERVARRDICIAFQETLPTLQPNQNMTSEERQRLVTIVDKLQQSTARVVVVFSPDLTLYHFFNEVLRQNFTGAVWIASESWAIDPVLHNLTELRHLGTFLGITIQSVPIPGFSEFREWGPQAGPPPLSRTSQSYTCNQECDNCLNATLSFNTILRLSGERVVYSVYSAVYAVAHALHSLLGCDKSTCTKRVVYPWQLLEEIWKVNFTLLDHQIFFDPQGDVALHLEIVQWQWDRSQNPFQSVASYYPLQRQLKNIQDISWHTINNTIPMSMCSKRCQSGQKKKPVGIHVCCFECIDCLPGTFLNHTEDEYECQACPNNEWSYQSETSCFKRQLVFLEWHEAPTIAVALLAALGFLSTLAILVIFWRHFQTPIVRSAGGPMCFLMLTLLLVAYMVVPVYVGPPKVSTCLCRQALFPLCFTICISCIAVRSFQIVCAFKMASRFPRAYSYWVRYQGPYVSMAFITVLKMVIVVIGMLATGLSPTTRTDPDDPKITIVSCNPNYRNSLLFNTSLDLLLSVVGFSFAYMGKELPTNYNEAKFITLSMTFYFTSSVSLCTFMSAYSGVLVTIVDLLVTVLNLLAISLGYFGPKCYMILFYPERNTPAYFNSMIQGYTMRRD
hT1R2/T1R3mosaicC, sequence (Q925D8 with tags, fused parts or gaps with the stated changes limits assumed): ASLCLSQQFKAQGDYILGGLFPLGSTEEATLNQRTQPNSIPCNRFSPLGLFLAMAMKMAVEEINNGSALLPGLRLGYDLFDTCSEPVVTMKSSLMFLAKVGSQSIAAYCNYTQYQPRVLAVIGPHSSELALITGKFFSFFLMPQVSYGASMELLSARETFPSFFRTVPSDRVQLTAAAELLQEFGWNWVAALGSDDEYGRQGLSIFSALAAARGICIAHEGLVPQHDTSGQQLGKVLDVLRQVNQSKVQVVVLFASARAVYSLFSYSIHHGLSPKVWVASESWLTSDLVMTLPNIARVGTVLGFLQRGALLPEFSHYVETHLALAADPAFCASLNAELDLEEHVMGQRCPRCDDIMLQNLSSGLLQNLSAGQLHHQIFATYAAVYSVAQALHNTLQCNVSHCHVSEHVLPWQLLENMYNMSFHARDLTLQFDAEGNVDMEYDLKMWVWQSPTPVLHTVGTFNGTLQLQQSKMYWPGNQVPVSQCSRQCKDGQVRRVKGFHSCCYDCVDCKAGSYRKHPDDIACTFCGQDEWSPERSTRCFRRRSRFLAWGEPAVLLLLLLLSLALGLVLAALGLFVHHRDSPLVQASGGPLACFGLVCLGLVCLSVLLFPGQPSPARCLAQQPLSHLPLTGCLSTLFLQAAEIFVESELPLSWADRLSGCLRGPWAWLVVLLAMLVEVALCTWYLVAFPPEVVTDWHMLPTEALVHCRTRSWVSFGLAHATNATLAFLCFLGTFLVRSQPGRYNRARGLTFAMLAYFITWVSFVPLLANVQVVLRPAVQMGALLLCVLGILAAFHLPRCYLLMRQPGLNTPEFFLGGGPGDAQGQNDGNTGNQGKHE
In the case of `CC1=CC(=O)NS(=O)(=O)O1` [Acesulfame K, acesulfame potassium], the S/N is reported as 3.2. `COC(=O)[C@H](Cc1ccccc1)NC(=O)[C@H](CC(=O)O)NCCCc1ccc(OC)c(O)c1` [Advantame, advantame] showed a S/N of 7.8. With `COC(=O)[C@H](Cc1ccccc1)NC(=O)[C@@H](N)CC(=O)O` [Aspartame, aspartame] (HELM PEPTIDE1{D.F.[CO[*:1]]}$$$$V2.0) the S/N was 4.5. For `COc1ccc(CCC(=O)c2c(O)cc(O[C@@H]3O[C@H](CO)[C@@H](O)[C@H](O)[C@H]3O[C@@H]3O[C@@H](C)[C@H](O)[C@@H](O)[C@H]3O)cc2O)cc1O` [NHDC, neohesperidin dihydrochalcone], the S/N was 3.8. `COC(=O)[C@H](Cc1ccccc1)NC(=O)[C@H](CC(=O)O)NCCC(C)(C)C` [Neotame, neotame] was tested, and the S/N was 7.1. With `C[C@H](NC(=Nc1ccc(C#N)cc1)NCC(=O)O)c1ccccc1` [SC-45647, [3-[(S)-1-phenylethyl]-2-(4-cyanophenyl)guanidino]acetic acid] the S/N was 5.4. With `O=C1NS(=O)(=O)c2ccccc21.[Na]` [Saccharin Na, sodium saccharin] the S/N was 3.6. In the case of `OC[C@H]1O[C@H](O[C@]2(CCl)O[C@H](CCl)[C@@H](O)[C@@H]2O)[C@H](O)[C@@H](O)[C@H]1Cl` [Sucralose, sucralose], the S/N is reported as 5.7. In the case of `OC[C@H]1O[C@@](CO)(O[C@H]2O[C@H](CO)[C@@H](O)[C@H](O)[C@H]2O)[C@@H](O)[C@@H]1O` [Sucrose, sucrose], the S/N is reported as 3.4.
